Assay results from BindingDB's records for doi:10.7270/Q2QN6575 (Nmmlsc, 2011).

Target: T1, Citrate synthase, peroxisomal [1-24] (Saccharomyces cerevisiae, UniProt P08679)
T1 construct: 1-24
Experiment: yeast TOR pathway CIT2-GFP reporter analogs – flow cytometry, cherry pick 3, dose response, SAR follow-up (AID 488825)

[1] = inactive by the depositor's call

T1 sequence (P08679 1-24): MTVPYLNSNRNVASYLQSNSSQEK

In the case of `COc1ccccc1-c1cc(C(F)(F)F)nc(S(=O)(=O)CCCC(=O)O)n1` [4-[4-(2-methoxyphenyl)-6-(trifluoromethyl)pyrimidin-2-yl]sulfonylbutanoic acid], the EC50 [1] is reported as 58 µM.

With `O=C(O)c1ccc2cccc(O)c2n1` [8-oxidanylquinoline-2-carboxylic acid] the EC50 [1] was 300 µM.

Work on `Cc1nc(Nc2ccc(Br)cc2Br)c([N+](=O)[O-])c(=O)[nH]1` [6-[[2,4-bis(bromanyl)phenyl]amino]-2-methyl-5-nitro-1H-pyrimidin-4-one] yielded an EC50 of 74.1 µM.

`CCC(C)Nc1nc(N)c([N+](=O)[O-])c(Nc2ccccc2OC)n1` (stereo unspecified) [SMR000434817] gave an EC50 [1] of 128 µM.

`Cc1ccc(C(=O)Nc2nc(-c3ccccn3)cs2)o1` [5-methyl-N-[4-(2-pyridinyl)-2-thiazolyl]-2-furancarboxamide] showed an EC50 [1] of 3680 µM.

Molecule `Oc1c(Cl)cc(Cl)c2cccnc12` [AS-229] has an EC50 [1] of 19800 µM.
